Experimental data as given in US10138212B2, “Aminoquinazoline compounds as A2A antagonist” (Merck Sharp & Dohme Corp., priority 2015, dated 2018).

Assays:
[1] = target: human A1 receptor (Homo sapiens (Human), UniProt P30542); assay: A1 competition binding assay using Scintillation Proximity technology; selectivity = A1 binding Ki / A2a binding Ki; conditions: A1 binding Ki divided by A2a binding Ki
Description: (§1) Binding affinities of compounds of the invention for the human A1 receptor were determined in a competition binding assay using Scintillation Proximity technology. Thus, 5 of membranes from CHO-K1 cells expressing the human A1 receptor were incubated with a compound of the invention at concentrations ranging from 3000 nM to 0.15 nM in a reaction mixture containing also 0.7 nM of a tritiated form of 8-Cyclopentyl-1,3-dipropylxanthine (the tritiated compound) and 25 μg of wheat germ agglutin-coated yttrium silicate SPA beads for one hour at room temperature with agitation. The beads were then allowed to settle to the bottom of the wells for 1 hr, after which the membrane-associated radioactivity was determined by scintillation counting in a TopCount microplate reader. Ki values were determined in a similar fashion described with A2a binding.
• Cells expressing the human, rat, dog or monkey adenosine 1 receptor (Purchased from Perkin-Elmer # ES-010-M400UA • [^3H]DPCPX (purchased from Perkin-Elmer NET-974, 8-cyclopentyl-1,3-dipropylxanthine, [dipropyl-2,3-^3H(N)]. • Wheatgerm agglutinin-coated yttrium silicate SPA beads (Purchased from GE Healthcare #RPNQ0023). Dilute to 25 mg/ml in assay buffer. Store at 4° C. • Assay Buffer—Dulbecco's phosphate buffered saline without calcium and without magnesium+10 mM MgCl2 • Adenosine deaminase from calf intestine, 10 mg/2 ml (Roche #10 102 105 001). • DMSO • DPCPX (A1 antagonist) from Tocris Bioscience Compound Dilution • Dilute compounds to 1 mM in 100% DMSO
Make serial dilutions as necessary (i.e., 1:10, 1:3) in 100% DMSO.
Dilute 1:20 into assay buffer (i.e. 3 ul into 57 ul buffer). This is a 5× solution in 5% DMSO.
• Dilute [^3H]DPCPX to 1.75 nM in assay buffer. This is a 2.5× solution. The final concentration in the assay is 0.7 nM. Calculate the concentration by counting two 5 ul aliquots. Membrane Preparation • Use 5 ug of membrane/well. Dilute membranes to 250 ug/ml in assay buffer. Treat with 20 ug/ml adenosine deaminase (ADA) for 15 minutes at room temperature to degrade endogenous adenosine. Membrane-Bead Mixture • Use 25 ug/well wheatgerm agglutinin-coated yttrium silicate SPA beads • Mix ADA-treated membranes and SPA beads together for 30 min prior to assay. Assay Assembly • Add in order to a Perkin-Elmer Optiplate-384: 10 ul of 5× compound, 20 ul of 2.5× [^3H]DPCPX, 20 ul membrane-bead mixture. Incubate for one hour at room temperature with agitation. • Include total binding (assay buffer+1% DMSO) and non-specific binding (DPCPX, 1 uM) wells. Counting and Calculations

[2] = target: human A2a receptor (Homo sapiens (Human), UniProt P29274); assay: A2a competition binding assay using Scintillation Proximity technology
Chain of human A2a receptor (P29274 whole entry): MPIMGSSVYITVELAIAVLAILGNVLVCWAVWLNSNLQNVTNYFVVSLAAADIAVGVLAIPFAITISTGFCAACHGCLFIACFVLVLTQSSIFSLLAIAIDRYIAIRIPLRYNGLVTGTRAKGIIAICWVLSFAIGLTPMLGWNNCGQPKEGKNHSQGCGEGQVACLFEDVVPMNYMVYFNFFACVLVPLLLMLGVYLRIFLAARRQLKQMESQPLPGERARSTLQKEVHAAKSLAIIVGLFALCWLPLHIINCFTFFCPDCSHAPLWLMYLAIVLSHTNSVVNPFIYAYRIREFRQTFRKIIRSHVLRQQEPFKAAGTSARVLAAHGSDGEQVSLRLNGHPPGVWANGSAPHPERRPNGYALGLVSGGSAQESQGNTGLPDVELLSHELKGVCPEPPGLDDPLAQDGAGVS
Description: as §1, with “human A2a” for “human A1”, “Thus, 1* μg, or preferably 0.25 μg” for “Thus, 5”, “from HEK293” for “from CHO-K1”, “also 0.5” for “also 0.7”, “of 5-amino-7-[2-phenethyl]-2-(furan-2-yl)-7H-pyrazolo[4,3-e][1,2,4]triazolo[1,5-c]pyrimidine” for “of 8-Cyclopentyl-1,3-dipropylxanthine”, “determined using the Cheng-Prusoff equation.” for “determined in a similar fashion described with A2a binding.”
HEK293 cells expressing the human, rat, dog or monkey adenosine 2a receptor (Purchased from Perkin-Elmer # RBHA2AM400UA).
The Tritiated compound was prepared in-house by MRL Radiochemistry according to published methods.
Wheat germ agglutinin-coated yttrium silicate SPA beads (GE Healthcare #RPNQ0023). Dilute to 25 mg/ml in assay buffer.
Assay Buffer was prepared in house: Dulbecco's calcium and magnesium free phosphate buffered saline+10 mM MgCl2
Adenosine deaminase from calf intestine, 10 mg/2 ml (Roche #10 102 105 001).
A2a antagonist standard (9-chloro-1-(2-furanyl)-[1,2,4]triazolo1,5-c]quinazolin-5-amine from Tocris Bioscience)
Make eight 1:3 serial dilutions in 100% DMSO from a 3 mM compound stock
Transfer 50 nl of compound into a 384-well OptiPlate (Perkin Elmer).
Typically, final concentrations of compound used in the assay ranged from 3000 nM to 0.152 nM.
Dilute a solution of the Tritiated compound to 1.25 nM in assay buffer. This is a 2.5× solution. The final concentration in the assay is 0.5 nM. Calculate the concentration by counting two 5 μl aliquots.
Use *1 ug or preferrably 0.25 ug of membrane/well. Dilute membranes to 9.7 μg/ml in assay buffer. Treat with 20 ug/ml adenosine deaminase (ADA) for 15 minutes at room temperature to degrade endogenous adenosine.
Use 25 μg/well wheat germ agglutinin-coated yttrium silicate SPA beads.
Mix ADA-treated membranes and SPA beads together for 30 min prior to assay.
To the Perkin-Elmer Optiplate-384 containing the compound titration add 20 μl of 2.5× solution of the Tritiated compound and 30 μl of the membrane-bead mixture. Incubate for one hour at room temperature with agitation.
Include total binding (assay buffer+1% DMSO) and non-specific binding (CGS15943, 1 μM) wells.
Allow the beads to settle for one hour.
A curve fitting program (i.e., Prism, Activity Base, Chemcart) is used to determine the EC50. The Ki value is calculated using the Cheng-Prusoff equation. Ki=EC50/(1+(radioligand concentration/Kd))
Using the foregoing assay method, the Ki results were obtained using the compounds of the invention described in Tables IIIa, IIIb, and IV. Each example compound tested is reported in the following format: Example number: A2a Ki reported in nM. Thus, for example, the compound Ex-1 was determined to have an Ki using the above-described assay and calculations, of 10.0 nM.

[3] = 0.25 μg of membranes from HEK293 cells expressing the human A2a receptor
[4] = * assay run with 1 μg of membranes versus 0.25 μg, HEK293 cells expressing the human A2a receptor

Chain of human A1 receptor (P30542 whole entry): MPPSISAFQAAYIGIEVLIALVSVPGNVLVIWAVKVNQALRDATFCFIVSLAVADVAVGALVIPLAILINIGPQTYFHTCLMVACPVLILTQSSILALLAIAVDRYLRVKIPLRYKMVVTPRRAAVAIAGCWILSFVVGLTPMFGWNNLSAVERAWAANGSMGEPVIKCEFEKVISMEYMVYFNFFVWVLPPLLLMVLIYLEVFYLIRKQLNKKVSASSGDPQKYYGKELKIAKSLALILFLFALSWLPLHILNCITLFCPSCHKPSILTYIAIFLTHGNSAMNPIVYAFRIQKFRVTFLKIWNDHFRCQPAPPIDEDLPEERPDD

Row | SMILES | A2a selectivity (A2a A1 binding selectivity) [1] | Ki [2, 3] [nM] | Ki [2, 4] [nM]
1 | COc1cccc2c(C(=O)NCc3ncccc3F)nc(N)nc12 [Example 25, 2-amino-N-[(3-fluoro-2-pyridyl)methyl]-8-methoxy-quinazoline-4-carboxamide] | 221 | 1.4 | –
2 | N#Cc1ccc(OCc2cccc(CNC(=O)c3nc(N)nc4c(F)cccc34)n2)cc1 [Example 47, 2-amino-N-[[6-[(4-cyanophenoxy)methyl]-2-pyridyl]methyl]-8-fluoro-quinazoline-4-carboxamide] | 36 | – | 3.8
3 | COc1cccc2c(C(=O)NCc3cccc(C4CCC4)n3)nc(N)nc12 [Example 6, 2-amino-N-[(6-cyclobutyl-2-pyridyl)methyl]-8-methoxy-quinazoline-4-carboxamide] | 102 | 0.2 | –
4 | COc1cccc2c(C(=O)NC(C)(C)c3ccccn3)nc(N)nc12 [Example 39, 2-amino-8-methoxy-N-[1-methyl-1-(2-pyridyl)ethyl]quinazoline-4-carboxamide] | 9 | 415 | –
5 | COc1cccc2c(C(=O)NCc3nc(C)ccc3C)nc(N)nc12 [Example 11, 2-amino-N-[(3,6-dimethyl-2-pyridyl)methyl]-8-methoxy-quinazoline-4-carboxamide] | 208 | 0.2 | –
6 | [2H]C([2H])(NC(=O)c1nc(N)nc2c(OC)cccc12)c1cccc(Oc2cncc(OC)c2)n1 [Example 58, 2-amino-N-[dideuterio-[6-[(5-methoxy-3-pyridyl)oxy]-2-pyridyl]methyl]-8-methoxy-quinazoline-4-carboxamide] | 16 | – | 5
7 | COc1cccc2c(C(=O)NCc3cccc4c3OC(F)(F)O4)nc(N)nc12 [Example 42, 2-amino-N-[(2,2,-difluoro-1,3-benzodioxol-4-yl)methyl]-8-methoxy-quinazoline-4-carboxamide] | 39 | – | 5.3
8 | COc1cccc2c(C(=O)NCc3cccc(C(C)C)n3)nc(N)nc12 [Example 5, 2-amino-N-[(6-isopropyl-2-pyridyl)methyl]-8-methoxy-quinazoline-4-carboxamide] | 146 | 0.2 | –
9 | COc1cccc2c(C(=O)NCc3nc(-c4ccccc4)c(C)o3)nc(N)nc12 [Example 31, 2-amino-8-methoxy-N-[(5-methyl-4-phenyl-oxazol-2-yl)methyl]quinazoline-4-carboxamide] | 105 | 1.6 | –
10 | COc1cccc2c(C(=O)NC3CCc4ccccc4C3)nc(N)nc12 (centres unmarked) [Example 34, 2-amino-8-methoxy-N-[2-tetralin-2-yl]quinazoline-4-carboxamide] | 46 | 20 | –

Further lines, results first:

Row | A2a selectivity (A2a A1 binding selectivity) [1] | Ki [2, 3] [nM] | Ki [2, 4] [nM] | SMILES
11 | 60 | 3.6 | – | Nc1nc(C(=O)NCc2cccc(C(F)F)n2)c2cccc(F)c2n1 [Example 71, 2-amino-N-[[6-(difluoromethyl)-2-pyridyl]methyl]-8-fluoro-quinazoline-4-carboxamide]
12 | 31 | 1.6 | – | Nc1nc(C(=O)NCc2cccc(Cc3ccncc3)n2)c2cccc(F)c2n1 [Example 112, 2-amino-8-fluoro-N-[[6-(4-pyridylmethyl)-2-pyridyl]methyl]quinazoline-4-carboxamide]
13 | 50 | 1 | – | CC(C)c1cccc(-c2cccc(CNC(=O)c3nc(N)nc4c(F)cccc34)n2)c1 [Example 65, 2-amino-8-fluoro-N-[[6-(3-isopropylphenyl)-2-pyridyl]methyl]quinazoline-4-carboxamide]
14 | 88 | 0.2 | – | Nc1nc(C(=O)NCc2cccc3cccnc23)c2cccc(OC(F)(F)F)c2n1 [Example 101, 2-amino-N-(8-quinolylmethyl)-8-(trifluoromethoxy)quinazoline-4-carboxamide]
15 | 55 | 86 | – | CS(=O)(=O)c1cccc2c(C(=O)NCc3cccc4cccnc34)nc(N)nc12 [Example 95, 2-amino-8-methylsulfonyl-N-(8-quinolylmethyl)quinazoline-4-carboxamide]
16 | 25 | 5.3 | – | Nc1nc(C(=O)NCc2cccc3c2OCCN3)c2cccc(F)c2n1 [Example 84, 2-amino-N-(3,4-dihydro-2H-1,4-benzoxazin-8-ylmethyl)-8-fluoro-quinazoline-4-carboxamide]
17 | 141 | 8 | – | Nc1nc(C(=O)NCC2CCN(c3ncc(F)cn3)CC2)c2cccc(F)c2n1 [Example 86, 2-amino-8-fluoro-N-[[1-(5-fluoropyrimidin-2-yl)-4-piperidyl]methyl]quinazoline-4-carboxamide]
18 | 115 | 0.5 | – | Cc1ccc(F)c(CNC(=O)c2nc(N)nc3c(F)cccc23)n1 [Example 76, 2-amino-8-fluoro-N-[(3-fluoro-6-methyl-2-pyridyl)methyl]quinazoline-4-carboxamide]
19 | 67 | – | 4.3 | [2H]C([2H])(NC(=O)c1nc(N)nc2c(OC)cccc12)c1cccc(N2CCN(c3ccc(OCCOC)cc3)CC2)n1 [Example 60, 2-amino-N-[dideuterio-[6-[4-[4-(2-methoxyethoxy)phenyl]piperazin-1-yl]-2-pyridyl]methyl]-8-methoxy-quinazoline-4-carboxamide]
20 | 3 | – | 3.8 | CC(C)Oc1cccc(-c2cccc(CNC(=O)c3nc(N)nc4c(F)cccc34)n2)c1 [Example 66, 2-amino-8-fluoro-N-[[6-(3-isopropoxyphenyl)-2-pyridyl]methyl]quinazoline-4-carboxamide]
21 | – | 3 | – | Nc1nc(C(=O)NCc2cccc3c2NCCC3)c2cccc(F)c2n1 [Example 90]
